Measurements as given in the kinase profiling compilation of Christmann-Franck et al. (2016).

Experiments:
Assay in all cases: KINOMEscan competition binding
Conditions in all cases: compound 10.0 µM
[1] = biological target: ABL2 (human) (UniProt P42684)
[2] = biological target: ACVRL1 (human) (UniProt P37023)
[3] = biological target: AKT1 (human) (UniProt P31749)
[4] = biological target: AKT3 (human) (UniProt Q9Y243)
[5] = biological target: BMPR1A (human) (UniProt P36894)
[6] = biological target: CAMK2B (human) (UniProt Q13554)
[7] = biological target: CDK7 (human) (UniProt P50613)
Sequence of CDK7 (human) (P50613 whole entry, looked up): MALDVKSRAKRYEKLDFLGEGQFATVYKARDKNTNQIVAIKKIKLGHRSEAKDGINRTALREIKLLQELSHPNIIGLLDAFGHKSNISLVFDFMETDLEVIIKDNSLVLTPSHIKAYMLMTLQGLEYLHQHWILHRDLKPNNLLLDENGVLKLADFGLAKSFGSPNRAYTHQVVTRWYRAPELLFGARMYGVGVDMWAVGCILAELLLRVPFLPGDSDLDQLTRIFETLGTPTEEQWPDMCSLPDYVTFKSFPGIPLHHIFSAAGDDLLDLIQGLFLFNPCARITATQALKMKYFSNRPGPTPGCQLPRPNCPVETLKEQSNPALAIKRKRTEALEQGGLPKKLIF

[8] = biological target: CHEK2 (human) (UniProt O96017)
[9] = biological target: CLK4 (human) (UniProt Q9HAZ1)
[10] = biological target: DYRK1B (human) (UniProt Q9Y463)
[11] = biological target: EPHA4 (human) (UniProt P54764)
[12] = biological target: FGFR1 (human) (UniProt P11362)
[13] = biological target: FGFR2 (human) (UniProt P21802)
[14] = biological target: FGFR3 (human) (UniProt P22607)
[15] = biological target: FLT1 (human) (UniProt P17948)
[16] = biological target: FLT4 (human) (UniProt P35916)
[17] = biological target: FRK (human) (UniProt P42685)
[18] = biological target: JAK2 JH1 catalytic (human) (UniProt O60674)
Sequence of JAK2 JH1 catalytic (human) (O60674 whole entry, looked up): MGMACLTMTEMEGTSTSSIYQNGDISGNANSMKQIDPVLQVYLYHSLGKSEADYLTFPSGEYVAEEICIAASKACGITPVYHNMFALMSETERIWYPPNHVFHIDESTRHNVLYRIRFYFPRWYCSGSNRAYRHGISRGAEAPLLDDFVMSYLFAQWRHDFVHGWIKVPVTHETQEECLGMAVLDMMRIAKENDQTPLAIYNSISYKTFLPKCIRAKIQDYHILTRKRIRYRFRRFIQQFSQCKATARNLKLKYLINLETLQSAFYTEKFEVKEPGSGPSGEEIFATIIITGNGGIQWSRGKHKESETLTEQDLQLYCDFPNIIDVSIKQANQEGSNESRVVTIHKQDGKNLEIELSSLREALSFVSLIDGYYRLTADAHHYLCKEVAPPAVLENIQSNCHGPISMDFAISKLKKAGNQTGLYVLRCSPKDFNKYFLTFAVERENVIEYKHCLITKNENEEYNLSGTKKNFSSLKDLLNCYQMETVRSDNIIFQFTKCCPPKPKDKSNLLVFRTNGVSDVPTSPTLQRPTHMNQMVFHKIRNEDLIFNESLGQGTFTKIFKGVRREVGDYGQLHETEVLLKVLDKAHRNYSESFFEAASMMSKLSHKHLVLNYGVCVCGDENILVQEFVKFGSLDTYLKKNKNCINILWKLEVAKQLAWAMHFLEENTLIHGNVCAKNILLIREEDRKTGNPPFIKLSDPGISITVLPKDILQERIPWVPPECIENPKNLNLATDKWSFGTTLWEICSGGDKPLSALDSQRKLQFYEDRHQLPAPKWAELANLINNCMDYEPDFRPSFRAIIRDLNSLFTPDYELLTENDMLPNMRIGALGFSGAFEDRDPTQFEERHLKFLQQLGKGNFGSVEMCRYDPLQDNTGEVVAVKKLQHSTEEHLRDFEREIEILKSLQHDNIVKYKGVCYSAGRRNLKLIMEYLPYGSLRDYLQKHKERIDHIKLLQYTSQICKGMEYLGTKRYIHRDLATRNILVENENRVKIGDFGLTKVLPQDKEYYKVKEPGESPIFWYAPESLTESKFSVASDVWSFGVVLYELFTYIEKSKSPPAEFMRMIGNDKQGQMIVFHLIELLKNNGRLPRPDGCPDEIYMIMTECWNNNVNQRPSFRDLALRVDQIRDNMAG

[19] = biological target: MAP3K10 (human) (UniProt Q02779)
[20] = biological target: MAP3K3 (human) (UniProt Q99759)
[21] = biological target: MAP4K2 (human) (UniProt Q12851)
[22] = biological target: MAP4K3 (human) (UniProt Q8IVH8)
[23] = biological target: MAPK10 (human) (UniProt P53779)
[24] = biological target: MST1R (human) (UniProt Q04912)
[25] = biological target: MST4 (human) (UniProt Q9P289)
[26] = biological target: NEK2 (human) (UniProt P51955)
[27] = biological target: PIM2 (human) (UniProt Q9P1W9)
Sequence of PIM2 (human) (Q9P1W9 whole entry, looked up): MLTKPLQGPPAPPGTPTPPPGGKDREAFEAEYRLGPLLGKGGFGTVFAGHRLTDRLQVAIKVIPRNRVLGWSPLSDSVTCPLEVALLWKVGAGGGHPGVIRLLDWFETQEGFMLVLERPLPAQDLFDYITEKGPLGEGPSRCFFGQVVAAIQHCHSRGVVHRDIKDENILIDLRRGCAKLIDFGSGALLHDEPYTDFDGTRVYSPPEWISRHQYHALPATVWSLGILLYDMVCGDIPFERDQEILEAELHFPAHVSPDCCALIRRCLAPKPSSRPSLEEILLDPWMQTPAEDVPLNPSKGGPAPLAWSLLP

[28] = biological target: PIP4K2B (human) (UniProt P78356)
[29] = biological target: PKMYT1 (human) (UniProt Q99640)
[30] = biological target: PLK1 (human) (UniProt P53350)
[31] = biological target: PLK4 (human) (UniProt O00444)
Sequence of PLK4 (human) (O00444 whole entry, looked up): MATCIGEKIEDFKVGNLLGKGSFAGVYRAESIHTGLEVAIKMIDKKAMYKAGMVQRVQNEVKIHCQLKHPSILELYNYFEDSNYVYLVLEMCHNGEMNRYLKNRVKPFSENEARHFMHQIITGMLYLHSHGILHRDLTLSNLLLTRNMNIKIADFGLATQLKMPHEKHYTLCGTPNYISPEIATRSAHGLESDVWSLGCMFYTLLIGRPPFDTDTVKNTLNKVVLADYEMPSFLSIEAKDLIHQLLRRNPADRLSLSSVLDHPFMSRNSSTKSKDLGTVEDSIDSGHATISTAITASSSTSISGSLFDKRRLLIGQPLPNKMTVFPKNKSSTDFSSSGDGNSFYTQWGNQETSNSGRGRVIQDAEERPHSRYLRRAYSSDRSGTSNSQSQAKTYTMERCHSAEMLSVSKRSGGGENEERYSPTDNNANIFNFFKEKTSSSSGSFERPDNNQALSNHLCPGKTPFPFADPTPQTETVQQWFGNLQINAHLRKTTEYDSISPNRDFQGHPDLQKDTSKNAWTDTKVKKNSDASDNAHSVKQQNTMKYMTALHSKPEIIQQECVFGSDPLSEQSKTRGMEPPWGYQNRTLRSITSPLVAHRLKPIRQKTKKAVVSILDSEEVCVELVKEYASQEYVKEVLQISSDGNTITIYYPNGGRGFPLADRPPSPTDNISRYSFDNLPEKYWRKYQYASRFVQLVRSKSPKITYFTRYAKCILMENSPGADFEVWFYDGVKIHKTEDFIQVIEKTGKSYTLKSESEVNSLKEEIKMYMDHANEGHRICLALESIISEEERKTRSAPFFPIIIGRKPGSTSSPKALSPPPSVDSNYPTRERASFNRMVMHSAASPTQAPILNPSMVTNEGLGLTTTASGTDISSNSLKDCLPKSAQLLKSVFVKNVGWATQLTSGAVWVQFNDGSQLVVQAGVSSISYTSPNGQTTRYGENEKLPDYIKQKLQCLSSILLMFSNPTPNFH

[32] = biological target: PRKAA2 (human) (UniProt P54646)
Sequence of PRKAA2 (human) (P54646 whole entry, looked up): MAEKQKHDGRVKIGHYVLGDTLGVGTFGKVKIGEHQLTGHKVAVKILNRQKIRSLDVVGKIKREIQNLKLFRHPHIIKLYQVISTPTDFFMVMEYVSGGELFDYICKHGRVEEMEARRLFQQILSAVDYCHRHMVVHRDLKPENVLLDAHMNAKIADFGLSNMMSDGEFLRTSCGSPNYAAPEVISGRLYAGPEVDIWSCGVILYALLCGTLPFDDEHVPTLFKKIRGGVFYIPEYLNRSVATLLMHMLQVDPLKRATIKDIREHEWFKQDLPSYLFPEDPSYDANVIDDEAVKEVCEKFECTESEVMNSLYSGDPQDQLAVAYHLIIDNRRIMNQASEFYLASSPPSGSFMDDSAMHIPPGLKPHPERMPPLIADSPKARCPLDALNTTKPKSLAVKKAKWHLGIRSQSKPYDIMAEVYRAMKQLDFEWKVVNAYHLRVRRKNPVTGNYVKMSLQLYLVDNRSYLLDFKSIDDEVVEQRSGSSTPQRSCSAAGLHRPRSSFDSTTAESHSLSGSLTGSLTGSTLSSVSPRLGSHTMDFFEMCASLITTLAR

[33] = biological target: PRKCE (human) (UniProt Q02156)
[34] = biological target: RIOK2 (human) (UniProt Q9BVS4)
[35] = biological target: RPS6KA5 KD2 (human) (UniProt O75582)
Sequence of RPS6KA5 KD2 (human) (O75582 whole entry, looked up): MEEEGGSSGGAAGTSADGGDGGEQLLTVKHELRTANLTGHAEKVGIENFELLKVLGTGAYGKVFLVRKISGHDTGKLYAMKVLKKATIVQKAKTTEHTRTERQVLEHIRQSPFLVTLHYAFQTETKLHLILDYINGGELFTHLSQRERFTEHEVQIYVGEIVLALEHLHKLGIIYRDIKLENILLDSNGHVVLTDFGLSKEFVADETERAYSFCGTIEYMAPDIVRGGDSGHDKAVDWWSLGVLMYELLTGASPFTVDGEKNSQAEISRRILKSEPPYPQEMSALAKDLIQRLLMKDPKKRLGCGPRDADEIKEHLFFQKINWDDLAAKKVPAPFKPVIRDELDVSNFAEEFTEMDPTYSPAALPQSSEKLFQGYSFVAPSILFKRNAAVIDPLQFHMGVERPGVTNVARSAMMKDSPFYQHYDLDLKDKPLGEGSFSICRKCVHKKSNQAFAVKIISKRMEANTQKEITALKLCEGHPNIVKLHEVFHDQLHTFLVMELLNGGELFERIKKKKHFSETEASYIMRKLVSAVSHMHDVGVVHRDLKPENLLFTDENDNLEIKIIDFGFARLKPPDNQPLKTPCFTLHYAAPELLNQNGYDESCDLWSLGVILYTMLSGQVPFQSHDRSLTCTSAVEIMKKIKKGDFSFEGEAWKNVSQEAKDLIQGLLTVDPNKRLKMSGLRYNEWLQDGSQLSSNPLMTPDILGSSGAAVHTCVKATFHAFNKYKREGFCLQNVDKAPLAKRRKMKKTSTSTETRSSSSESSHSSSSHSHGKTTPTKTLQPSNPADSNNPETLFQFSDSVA

[36] = biological target: RPS6KA6 KD2 (human) (UniProt Q9UK32)
[37] = biological target: STK17B (human) (UniProt O94768)
Sequence of STK17B (human) (O94768 whole entry, looked up): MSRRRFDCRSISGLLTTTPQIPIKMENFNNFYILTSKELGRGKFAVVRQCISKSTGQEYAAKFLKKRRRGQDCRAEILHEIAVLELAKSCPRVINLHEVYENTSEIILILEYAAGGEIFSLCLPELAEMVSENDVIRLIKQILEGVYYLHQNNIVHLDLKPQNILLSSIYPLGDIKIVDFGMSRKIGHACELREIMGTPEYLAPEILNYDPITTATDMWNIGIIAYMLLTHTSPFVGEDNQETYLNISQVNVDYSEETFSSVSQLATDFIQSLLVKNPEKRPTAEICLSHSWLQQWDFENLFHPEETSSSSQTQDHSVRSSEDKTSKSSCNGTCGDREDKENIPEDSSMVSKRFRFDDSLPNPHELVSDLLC

[38] = biological target: TGFBR1 (human) (UniProt P36897)
[39] = biological target: TGFBR2 (human) (UniProt P37173)
Sequence of TGFBR2 (human) (P37173 whole entry, looked up): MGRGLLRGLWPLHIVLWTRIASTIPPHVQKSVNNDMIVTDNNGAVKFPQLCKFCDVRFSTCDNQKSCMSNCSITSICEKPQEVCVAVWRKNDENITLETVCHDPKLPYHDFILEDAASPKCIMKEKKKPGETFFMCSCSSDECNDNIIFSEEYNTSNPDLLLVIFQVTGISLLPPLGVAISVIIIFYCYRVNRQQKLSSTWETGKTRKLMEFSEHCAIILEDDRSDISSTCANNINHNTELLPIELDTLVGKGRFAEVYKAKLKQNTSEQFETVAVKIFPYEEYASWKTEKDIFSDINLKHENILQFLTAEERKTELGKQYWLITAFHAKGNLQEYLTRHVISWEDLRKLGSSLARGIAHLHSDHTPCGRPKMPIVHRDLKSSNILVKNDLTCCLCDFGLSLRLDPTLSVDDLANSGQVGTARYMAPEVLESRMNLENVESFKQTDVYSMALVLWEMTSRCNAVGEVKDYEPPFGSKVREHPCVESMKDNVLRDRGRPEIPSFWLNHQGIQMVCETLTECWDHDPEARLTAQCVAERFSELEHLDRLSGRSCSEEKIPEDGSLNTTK

[40] = biological target: TYK2 JH2 pseudokinase (human) (UniProt P29597)

Row | Structure (SMILES) | kinase still bound, per cent of control [1] [%] | kinase still bound, per cent of control [2] [%] | kinase still bound, per cent of control [3] [%] | kinase still bound, per cent of control [4] [%] | kinase still bound, per cent of control [5] [%] | kinase still bound, per cent of control [6] [%] | kinase still bound, per cent of control [7] [%] | kinase still bound, per cent of control [8] [%] | kinase still bound, per cent of control [9] [%] | kinase still bound, per cent of control [10] [%] | kinase still bound, per cent of control [11] [%] | kinase still bound, per cent of control [12] [%] | kinase still bound, per cent of control [13] [%] | kinase still bound, per cent of control [14] [%] | kinase still bound, per cent of control [15] [%] | kinase still bound, per cent of control [16] [%] | kinase still bound, per cent of control [17] [%] | kinase still bound, per cent of control [18] [%] | kinase still bound, per cent of control [19] [%] | kinase still bound, per cent of control [20] [%] | also measured
1 | C=CC(=O)Nc1cc(NC(=O)c2ccc(C)c(NC(=O)c3ccno3)c2)cc(C(F)(F)F)c1 | 32 | 100 | 58 | 100 | 100 | 100 | 91 | 96 | 100 | 95 | 48 | 100 | 99 | 97 | 100 | 100 | 12 | 74 | 100 | 96 | kinase still bound, per cent of control [21]: 100%; kinase still bound, per cent of control [22]: 87%; kinase still bound, per cent of control [23]: 86%; kinase still bound, per cent of control [24]: 99%; kinase still bound, per cent of control [25]: 91%; kinase still bound, per cent of control [26]: 100%; kinase still bound, per cent of control [27]: 96%; kinase still bound, per cent of control [28]: 100%; kinase still bound, per cent of control [29]: 83%; kinase still bound, per cent of control [30]: 77%; kinase still bound, per cent of control [31]: 91%; kinase still bound, per cent of control [32]: 100%; kinase still bound, per cent of control [33]: 100%; kinase still bound, per cent of control [34]: 92%; kinase still bound, per cent of control [35]: 90%; kinase still bound, per cent of control [36]: 79%; kinase still bound, per cent of control [37]: 89%; kinase still bound, per cent of control [38]: 96%; kinase still bound, per cent of control [39]: 93%; kinase still bound, per cent of control [40]: 100%
2 | C=CC(=O)Nc1cccc(Oc2nc(Nc3ccc(N4CCN(C)CC4)cc3OC)ncc2Cl)c1 | 100 | 100 | 100 | 100 | 100 | 100 | 35 | 8.8 | 12 | 17 | 100 | 10 | 100 | 100 | 100 | 100 | 28 | 100 | 100 | 100 | kinase still bound, per cent of control [21]: 100%; kinase still bound, per cent of control [22]: 29%; kinase still bound, per cent of control [23]: 13%; kinase still bound, per cent of control [24]: 100%; kinase still bound, per cent of control [25]: 100%; kinase still bound, per cent of control [26]: 100%; kinase still bound, per cent of control [27]: 100%; kinase still bound, per cent of control [28]: 100%; kinase still bound, per cent of control [29]: 100%; kinase still bound, per cent of control [30]: 16%; kinase still bound, per cent of control [31]: 0.2%; kinase still bound, per cent of control [32]: 100%; kinase still bound, per cent of control [33]: 100%; kinase still bound, per cent of control [34]: 12%; kinase still bound, per cent of control [35]: 100%; kinase still bound, per cent of control [36]: 27%; kinase still bound, per cent of control [37]: 100%; kinase still bound, per cent of control [38]: 100%; kinase still bound, per cent of control [39]: 100%; kinase still bound, per cent of control [40]: 100%
3 | C[C@@H](Oc1cc(-n2cnc3ccc(CN4CCN(C)CC4)cc32)sc1C(N)=O)c1ccccc1C(F)(F)F | 90 | 100 | 100 | 100 | 28 | 19 | 33 | 69 | 59 | 89 | 100 | 37 | 75 | 80 | 100 | 63 | 100 | 87 | 92 | 88 | kinase still bound, per cent of control [21]: 24%; kinase still bound, per cent of control [22]: 59%; kinase still bound, per cent of control [23]: 100%; kinase still bound, per cent of control [24]: 100%; kinase still bound, per cent of control [25]: 95%; kinase still bound, per cent of control [26]: 2.4%; kinase still bound, per cent of control [27]: 77%; kinase still bound, per cent of control [28]: 5.8%; kinase still bound, per cent of control [29]: 100%; kinase still bound, per cent of control [30]: 0.1%; kinase still bound, per cent of control [31]: 97%; kinase still bound, per cent of control [32]: 80%; kinase still bound, per cent of control [33]: 3.9%; kinase still bound, per cent of control [34]: 65%; kinase still bound, per cent of control [35]: 34%; kinase still bound, per cent of control [36]: 73%; kinase still bound, per cent of control [37]: 100%; kinase still bound, per cent of control [38]: 99%; kinase still bound, per cent of control [39]: 100%; kinase still bound, per cent of control [40]: 100%
